target: T1, Recombinant human Src (Homo sapiens, UniProt P12931); test: Src tyrosine kinase activity, poly E4Y / 32P-ATP phosphorylation assay; assay type: biochemical; conditions: Table 6, Formula V compounds; compound at 15 μg/mL; read-out: % Inhibition at 15 μg/mL Src (%)
T1 construct: made in house; host or cells: baculovirus-insect cell system
Protocol: Recombinant human Src was expressed using the baculovirus-insect cell system and purified as published (Budde et al., 1993 and 2000).
The tyrosine kinase activity of Src, Csk and FGFr was determined using poly E4Y and ^32P-ATP. Briefly, enzymes were assayed in a reaction mixture consisting of 0.15 M EPPS-NaOH (pH 8.0) with 6 mM MgCl2, 0.2 mM γ^32P-ATP (0.2-0.4 mCi/μmol), 10% glycerol, 0.1% Triton X-100, and poly E4Y. Poly E4Y is a synthetic peptide whose phosphorylation is measured in this assay by the addition of the radioactively labeled phosphate from the ATP (Budde et al., 1995). […] When ATP was varied (0, 50, 100 and 250 μM), poly E4Y was kept constant at 150 μg/ml.

T1 sequence (P12931 whole entry): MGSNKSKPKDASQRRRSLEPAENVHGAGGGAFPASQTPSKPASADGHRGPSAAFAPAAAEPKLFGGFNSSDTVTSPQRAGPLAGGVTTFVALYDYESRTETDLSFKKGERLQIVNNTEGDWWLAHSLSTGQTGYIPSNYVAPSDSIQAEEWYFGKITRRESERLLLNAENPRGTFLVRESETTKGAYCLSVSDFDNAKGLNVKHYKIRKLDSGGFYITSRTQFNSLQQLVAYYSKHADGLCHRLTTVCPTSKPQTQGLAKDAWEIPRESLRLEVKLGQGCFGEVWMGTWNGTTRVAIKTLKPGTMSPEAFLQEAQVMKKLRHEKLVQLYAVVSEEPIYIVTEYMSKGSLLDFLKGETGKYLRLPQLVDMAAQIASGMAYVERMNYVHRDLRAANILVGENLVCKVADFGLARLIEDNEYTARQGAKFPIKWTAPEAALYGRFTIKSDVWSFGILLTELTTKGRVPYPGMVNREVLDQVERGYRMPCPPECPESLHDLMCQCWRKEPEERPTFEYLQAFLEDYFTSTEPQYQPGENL

inhibition at 15 µg/mL [%] | Structure (SMILES)
21 | COc1ccc(Oc2ccc3[nH]c(=O)n(S(=O)(=O)c4ccc(C)cc4)c3c2)cc1 [Compound 72a, 6-(4-methoxy-phenoxy)-1-(4-toluenesulfonyl)-1,3-dihydro-benzoimidazol-2-one]
19 | COc1ccc(Oc2ccc3c(c2)[nH]c(=O)n3S(=O)(=O)c2ccc(C)cc2)cc1 [Compound 72b, 5-(4-methoxy-phenoxy)-1-(4-toluenesulfonyl)-1,3-dihydro-benzoimidazol-2-one]
22 | COc1ccc(Oc2ccc3c(c2)n(S(=O)(=O)c2ccc(C)cc2)c(=O)n3S(=O)(=O)c2ccc(C)cc2)cc1 [Compound 72c, 5-(4-methoxy-phenoxy)-1,3-bis-(4-toluenesulfonyl)-1,3-dihydro-benzoimidazol-2-one]
12 | COc1ccc(Oc2ccc3c(c2)NS(=O)(=O)N3)cc1 [Compound 72d, 5-(4-methoxy-phenoxy)-1,3-dihydro-benzo[1,2,5]thiadiazole 2,2-dioxide]

same assay, conditions: compound at 15 μg/mL; read-out: % Inhibition at 15 μg/mL Src %

Structure (SMILES) | inhibition at 15 µg/mL [%]
COc1ccc(Oc2cc(N)c(NS(=O)(=O)c3ccc(C)cc3)cc2C(F)(F)F)cc1 [Compound 71ee, N-[2-amino-4-(4-methoxy-phenoxy)-5-trifluoromethyl-phenyl]-4-toluenesulfonamide] | 21
COc1ccc(Oc2cc(NS(=O)(=O)c3ccc(C)cc3)c(N)cc2C(F)(F)F)cc1 [Compound 71gg, N-[2-amino-5-(4-methoxy-phenoxy)-4-trifluoromethyl-phenyl]-4-toluenesulfonamide] | 19
COc1ccc(Oc2ccc(NS(=O)(=O)c3ccc(C)cc3)c(NC(=O)c3cnc(C)cn3)c2)cc1 [Compound 71h, N-[5-(4-methoxy-phenoxy)-2-(4-toluenesulfonylamino)-phenyl]-5-methyl-pyrazine-2-carboxamide] | 0
COc1ccc(Oc2ccc(N)c(CNS(=O)(=O)c3ccc(C)cc3)c2)cc1 [Compound 71i, N-[2-amino-5-(4-methoxy-phenoxy)-benzyl]-4-toluenesulfonamide] | 13
Nc1cc(SCc2ccccc2Cl)c([N+](=O)[O-])cc1NS(=O)(=O)c1ccc(Cl)c2nonc12 [Compound 71ll, N-[2-amino-4-(2-chloro-benzylsulfanyl)-5-nitro-phenyl]-7-chloro-benzo[1,2,5]oxadiazole-4-sulfonamide] | 26
COc1ccc(Oc2ccc(N)c(N(C)S(=O)(=O)c3ccc(C)cc3)c2)cc1 [Compound 71t, N-[2-amino-5-(4-methoxy-phenoxy)-phenyl]-N-methyl-4-toluenesulfonamide] | 0
COc1ccc(Oc2ccc(NS(=O)(=O)c3ccc(C)cc3)c(N=Cc3ccc4ccccc4n3)c2)cc1 [Compound 71u, N-{4-(4-methoxy-phenoxy)-2-[(quinolin-2-ylmethylene)-amino]-phenyl}-4-toluenesulfonamide] | 6
COc1ccc(OCc2ccc(C(N)=O)c(NS(=O)(=O)c3ccc(C)cc3)c2)cc1 [Compound 71v, 4-(4-methoxy-phenoxymethyl)-2-(4-toluenesulfonylamino)-benzamide] | 10
COc1ccc(OCc2ccc(CN)c(NS(=O)(=O)c3ccc(C)cc3)c2)cc1 [Compound 71w, N-[2-aminomethyl-5-(4-methoxy-phenoxymethyl)-phenyl]-4-toluenesulfonamide] | 9
COc1ccc(OCc2ccc(CNS(C)(=O)=O)c(NS(=O)(=O)c3ccc4cc(C)ccc4c3)c2)cc1 [Compound 71x, N-[2-(methanesulfonylamino-methyl)-5-(4-methoxy-phenoxymethyl)-phenyl]-6-methyl-naphthalene-2-sulfonamide] | 20
Cc1ccc(C(=O)Nc2cc(N3CCOCC3)c([N+](=O)[O-])cc2NC(=O)c2ccc(C)cc2)cc1 [Compound 71y, N-(4-morpholin-4-yl-5-nitro-2-(4-toluoylamino)-phenyl)-4-toluamide] | 14
CCCC(=O)Nc1cc(Oc2ccc(OC)cc2)ccc1NS(=O)(=O)c1ccc(C)cc1 [Compound 71z, N-[5-(4-methoxy-phenoxy)-2-(4-toluenesulfonylamino)-phenyl]-butyramide] | 5

Continued, values first:

inhibition at 15 µg/mL [%] | Structure (SMILES)
4 | COc1ccc(OCc2ccc(CNC(=O)c3ccc(C)cc3)c(NS(=O)(=O)c3ccc(C)cc3)c2)cc1 [Compound 71ff, N-[4-(4-methoxy-phenoxymethyl)-2-(4-toluenesulfonylamino)-benzyl]-4-toluamide]
10 | COc1ccc(Oc2ccc(NCc3ccc4ccccc4n3)c(NS(=O)(=O)c3ccc(C)cc3)c2)cc1 [Compound 71g, N-{5-(4-methoxy-phenoxy)-2-[(quinolin-2-ylmethyl)-amino]-phenyl}-4-toluenesulfonamide]
23 | COc1ccc(Oc2ccc(NS(=O)(=O)c3ccc(C)cc3)c(NCc3ccc(C)cc3)c2)cc1 [Compound 71hh, N-[4-(4-methoxy-phenoxy)-2-(4-methyl-benzylamino)-phenyl]-4-toluenesulfonamide]
21 | COc1ccc(Oc2ccc(NS(=O)(=O)c3ccc(C)cc3)c(NC(=O)NS(=O)(=O)c3ccc(C)cc3)c2)cc1 [Compound 71ii, N-{4-(4-methoxy-phenoxy)-2-[3-(4-toluenesulfonyl)-ureido]-phenyl}-4-toluenesulfonamide]
19 | COc1ccc(Oc2ccc(NCc3ccc(C)cc3)c(NS(=O)(=O)c3ccc(C)cc3)c2)cc1 [Compound 71jj, N-[5-(4-methoxy-phenoxy)-2-(4-methyl-benzylamino)-phenyl]-4-toluenesulfonamide]
29 | Cc1ccc(S(=O)(=O)Nc2cc(SCc3ccccc3Cl)ccc2N)cc1 [Compound 71kk, N-[2-amino-5-(2-chloro-benzylsulfanyl)-phenyl]-4-toluenesulfonamide]
19 | CCc1ccc(NS(=O)(=O)c2ccc(OC)cc2NS(=O)(=O)c2ccc(C)cc2)cc1 [Compound 71mm, N-(4-ethyl-phenyl)-4-methoxy-2-(4-toluenesulfonylamino)-benzenesulfonamide]
46 | Cc1ccc(S(=O)(=O)Nc2ccc(S(=O)(=O)Cc3ccccc3Cl)cc2NS(=O)(=O)c2ccc(C)cc2)cc1 [Compound 71nn, N-[4-(2-chloro-phenylmethanesulfonyl)-2-(4-toluenesulfonylamino)-phenyl]-4-toluenesulfonamide]
10 | COc1ccc(Oc2ccc(NC(=O)Cc3ccccc3)c(NS(=O)(=O)c3ccc(C)cc3)c2)cc1 [Compound 71s, N-[4-(4-methoxy-phenoxy)-2-(4-toluenesulfonylamino)-phenyl]-2-phenyl-acetamide]

same assay, conditions: poly E4Y / 32P-ATP; Formula IV compounds

Structure (SMILES) | IC50 [µM]
COc1ccc(Oc2ccc(NCc3ccc(NC(C)=O)cc3)c(NS(=O)(=O)c3ccc(C)cc3)c2)cc1 [Compound 71e, N-(4-{[4-(4-methoxy-phenoxy)-2-(4-toluenesulfonylamino)-phenylamino]-methyl}-phenyl)-acetamide] | 203
COc1ccc(Oc2ccc(NS(=O)(=O)c3ccc(C)cc3)c(N)c2)cc1 [Compound 71l, N-[2-amino-4-(4-methoxy-phenoxy)-phenyl]-4-toluenesulfonamide] | 62
COc1ccc(Oc2ccc(NS(=O)(=O)c3ccc(C)cc3)c(CN)c2)cc1 [Compound 71n, N-[2-aminomethyl-4-(4-methoxy-phenoxy)-phenyl]-4-toluenesulfonamide] | 1300

Next, values leading:

IC50 [µM] | Structure (SMILES)
557 | COc1ccc(Oc2ccc(NCc3ccc(C#N)cc3)c(NS(=O)(=O)c3ccc(C)cc3)c2)cc1 [Compound 71d, N-[2-(4-cyano-benzylamino)-5-(4-methoxy-phenoxy)-phenyl]-4-toluenesulfonamide]
172 | COc1ccc(Oc2ccc(NS(=O)(=O)c3ccc(C)cc3)c(N(C)S(=O)(=O)c3ccc(C)cc3)c2)cc1 [Compound 71dd, N-[4-(4-methoxy-phenoxy)-2-(4-toluenesulfonyl-methyl-amino)-phenyl]-4-toluenesulfonamide]
627 | COc1ccc(Oc2ccc(NCc3cc4ccccc4o3)c(NS(=O)(=O)c3ccc(C)cc3)c2)cc1 [Compound 71f, N-[2-[(benzofuran-2-ylmethyl)-amino]-5-(4-methoxy-phenoxy)-phenyl]-4-toluenesulfonamide]
136 | COc1ccc(Oc2ccc(NS(=O)(=O)c3ccc(C)cc3)c(CNS(=O)(=O)c3ccc(C)cc3)c2)cc1 [Compound 71m, N-[4-(4-methoxy-phenoxy)-2-(4-toluenesulfonylamino-methyl)-phenyl]-4-toluenesulfonamide]
39 | Cc1ccc(S(=O)(=O)Nc2ccc(NC(=O)c3ccccc3)cc2N(C(=O)c2ccccc2)S(=O)(=O)c2ccc(C)cc2)cc1 [Compound 71o, N-[3-[benzoyl-(4-toluenesulfonyl)-amino]-4-(4-toluenesulfonylamino)-phenyl]-benzamide]
108 | COc1ccc(Oc2ccc(NS(=O)(=O)c3ccc(C)cc3)c(CNC(=O)c3ccc(C)cc3)c2)cc1 [Compound 71p, N-[5-(4-methoxy-phenoxy)-2-(4-toluenesulfonylamino)-benzyl]-4-toluamide]
99 | COc1ccc(Oc2ccc(NS(=O)(=O)c3ccc(C)cc3)c(NC(=O)c3ccc(C)cc3)c2)cc1 [Compound 71q, N-[5-(4-methoxy-phenoxy)-2-(4-toluenesulfonylamino)-phenyl]-4-toluamide]
159 | COc1ccc(Oc2ccc(NC(=O)c3ccc(C)cc3)c(NS(=O)(=O)c3ccc(C)cc3)c2)cc1 [Compound 71r, N-[4-(4-methoxy-phenoxy)-2-(4-toluenesulfonylamino)-phenyl]-4-toluamide]

Source: patent US20060004197A1, “Sulfonamide-based compounds as protein tyrosine kinase inhibitors” (priority 2004, published 2006)
